Laboratory results reported in ChEMBL document CHEMBL3507680, “University of Dundee, Gates Library screen for HepG2 cell viability”.

test: Human HepG2 cell viability assay in 384 well format; assay type: toxicity, cell-based; set-up: dose 125 nL, time 70.5 hour; cytotoxicity at 70.5 h: concentration not given beside the values; details: HepG2 cells, read-out: Inhibition

First: CCN1CC2(CC1=O)CN(Cc1ccco1)CCN(C(=O)C(C)C)C2 (stereo not drawn)
Second: CCN1CC2(CC1=O)CN(Cc1ccccn1)CCN(C(C)=O)C2 (stereo not drawn)
The cytotoxicity at 70.5 h of the first is higher: 7.56% for the first, -10.2% for the second.

Going from O=C(CN1CCC(OCC2CCCO2)CC1)NCC(F)(F)F (stereo not drawn) to O=C(c1ncccn1)N1CCC[C@]2(C[C@@H](OCC3CC3)CO2)C1, the cytotoxicity at 70.5 h falls from -7.24% to -16.4%.

Compared with COc1ccc(-c2nc3c([nH]2)CCNC3)c(OC)c1OC, COc1ccc(NCC2(O)CCNCC2)cc1OC is higher in cytotoxicity at 70.5 h: 1.85% for the first, 6.97% for the second.

First: COCCN(CCOC)C(=O)c1cnn(C)c1-n1c(C)ccc1C
Second: CNc1cc(C2CCCN2C(=O)CCc2cnn(C)c2C)ccn1 (stereo not drawn)
The cytotoxicity at 70.5 h of the first is higher: 1.05% for the first, -8.49% for the second.

First: CC(C)Cc1cc(C(=O)NCCN2CCCS2(=O)=O)[nH]n1
Second: CC(C)CN1CCN(C(=O)c2ccn(C)c(=O)c2)CC1
The cytotoxicity at 70.5 h of the first is lower: -10.6% for the first, -9.05% for the second.

Compared with CCCN(CC)Cn1ncc2cn(-c3ccccc3)nc2c1=O, Cc1cc(NC2CCN(c3ccccc3)C2)n2ncnc2n1 (stereo not drawn) is lower in cytotoxicity at 70.5 h: -2.92% for the first, -5.01% for the second.

First: Cc1csc(CN2CC(CO)Oc3ccccc32)n1 (stereo not drawn)
Second: O=C(Cn1cccnc1=O)NCC1Cc2ccccc2O1 (stereo not drawn)
The cytotoxicity at 70.5 h of the first is higher: 7.51% for the first, -9.82% for the second.

Compared with CC(C)NC(=O)Nc1ccc(CNCc2ccc(OC(F)F)cc2)cc1, c1cc(CNCc2ccc(Cn3cncn3)cc2)c2c(c1)OCCO2 is lower in cytotoxicity at 70.5 h: 13.8% for the first, -11.4% for the second.

Compared with CSCc1ccc(N2CCN(c3ccc(Cl)cn3)CC2)nc1, CC1(c2ncc(CN3CCN(c4ccccn4)CC3)cn2)CCCCO1 (stereo not drawn) is lower in cytotoxicity at 70.5 h: 3.63% for the first, -1.83% for the second.

Going from Cc1nc(C2CCCN2Cc2nnc(C3CC3)o2)no1 (stereo not drawn) to Cc1c(C(=O)O)cnn1-c1ccc(-c2nc(C3CC3)no2)cn1, the cytotoxicity at 70.5 h falls from 0.406% to -14%.

Compared with Cc1ccc(F)c(OC2(C(=O)O)CCN(C(=O)c3ccncc3)CC2)c1, O=C(c1ccncc1)N1CCC2(CCCN(c3ncc(F)cn3)C2)C1 (stereo not drawn) is higher in cytotoxicity at 70.5 h: -4.46% for the first, -2.34% for the second.

First: CCn1nc(CC(C)C)cc1C(=O)NCc1c(C)cc(C)nc1OC
Second: CCc1nc(Nc2cccc(C(=O)NC)c2)c2c(n1)c(C)nn2CC
The cytotoxicity at 70.5 h of the first is higher: 2.04% for the first, -11% for the second.

Going from CC(C)c1nccn1C1CCCN(C(=O)c2ccc3c(c2)OCO3)C1 (stereo not drawn) to O=C(c1ccc(F)c(F)c1)N1CCCC1CN1CCCC1 (stereo not drawn), the cytotoxicity at 70.5 h rises from -12.1% to -1.66%.

Going from CC(C)C(=O)N1CCN(Cc2csc(-c3ncccn3)n2)CC1 to O=C(CN1CC(c2ccccc2)CC1=O)N1CCN(c2nccs2)CC1 (stereo not drawn), the cytotoxicity at 70.5 h falls from -2.05% to -6.92%.

First: c1ccc(N2CCC(NCCc3ccc(-n4cccn4)cc3)CC2)nc1
Second: O=C(CCn1cccn1)N1CC[C@@H](c2ccc3ccccc3c2)[C@H](O)C1
The cytotoxicity at 70.5 h of the first is higher: 21.5% for the first, 3.07% for the second.

Going from Cc1cc(N2CCCC(N(C)C)C2)n2nc(C)cc2n1 (stereo not drawn) to Cc1cc(NC(C)c2nncn2C2CCCC2)n2nc(C)cc2n1 (stereo not drawn), the cytotoxicity at 70.5 h rises from -17% to -6.24%.

First: CN1CCN(Cc2cn3c(n2)CN(C(=O)N2CCOCC2)CC3)CC1
Second: O=S(=O)(c1cnccc1N1CCN(CCO)CC1)N1CCCCC1
The cytotoxicity at 70.5 h of the first is lower: -3.86% for the first, 27.8% for the second.

Going from CCN1CC2(CCC1=O)CCN(Cc1cccc(C#N)c1)CC2 to CCN1C(=O)CCC12CCN(S(=O)(=O)c1ccc(C#N)cc1)CC2, the cytotoxicity at 70.5 h rises from -4.47% to 15.5%.

First: O=S(=O)(c1ccccc1)N1CCCC1c1cc[nH]n1 (stereo not drawn)
Second: O=S(=O)(c1ccc(F)cc1)N1CCCC1c1cc[nH]n1 (stereo not drawn)
The cytotoxicity at 70.5 h of the first is lower: -8.7% for the first, -7.22% for the second.

Going from O=C1CCC(c2ccccc2)=NN1CN1CCCCCC1 to O=C(CN1CCCC1)N1CCCC1c1nc(O)cc(-c2ccccn2)n1 (stereo not drawn), the cytotoxicity at 70.5 h rises from -14% to 11.1%.

Compared with CN(C)c1ncc(CN2CCC(O)(c3ccccc3F)CC2)cn1, CN(C)c1nccc(C2CN(c3ccccc3)CCO2)n1 (stereo not drawn) is lower in cytotoxicity at 70.5 h: -2.07% for the first, -4.49% for the second.

Compared with O=C(c1ccnnc1)N1CCCn2nnc(COCC3CC3)c2C1, CN(Cc1cccnc1)C1CC2(CCN(C(=O)c3ccnnc3)CC2)C1 is lower in cytotoxicity at 70.5 h: 6.34% for the first, -13.1% for the second.

First: CC(OCC1CC1)C(=O)NCc1cccc(CN2CCCC2=O)c1 (stereo not drawn)
Second: O=C1N(Cc2cccc(F)c2F)CCCC1(O)CNC1CCCC1 (stereo not drawn)
The cytotoxicity at 70.5 h of the first is higher: 1.05% for the first, -2.45% for the second.

Going from c1cnc2ccc(C[C@@H]3CC[C@H](CN4CCCOCC4)O3)cc2c1 to c1cncc(CN2CCC(c3n[nH]c(C4CC4)n3)CC2)c1, the cytotoxicity at 70.5 h rises from -10.1% to 33.7%.

First: Cc1ccc(CNC2(Cc3cc(CC(C)C)on3)COC2)o1
Second: Cc1ccc(C(=O)N2CCO[C@H]3[C@H](OCCN(C)C)CC[C@@H]32)o1
The cytotoxicity at 70.5 h of the first is higher: 9.27% for the first, -4.42% for the second.

Compared with COc1cc(N2CC[C@@H]3O[C@@H](C(=O)NCCN(C)C)C[C@@H]32)ncn1, COc1ccccc1OCCC(=O)NC1CCc2nc(C)cn2C1 (stereo not drawn) is higher in cytotoxicity at 70.5 h: -9.68% for the first, -3.16% for the second.

Going from Cc1cc(CN2CCCC2Cn2cccn2)no1 (stereo not drawn) to Cc1nn(C)c(C)c1C1CCCN1Cc1cn2ccsc2n1 (stereo not drawn), the cytotoxicity at 70.5 h rises from -10.2% to -0.408%.

Going from Cc1nc(-c2ccsc2)sc1C(=O)N1CCn2c(C)nnc2C1 to CCc1nnc2n1CCN(C(=O)Cc1nc(-c3ccco3)oc1C)C2, the cytotoxicity at 70.5 h rises from -0.696% to 10.8%.

Compared with Cc1ccccc1CN(C)C(=O)CN1CCOC(Cn2cncn2)C1 (stereo not drawn), Cc1cnn(C2CN(CC(=O)N(C)Cc3cccs3)C2)c1 is lower in cytotoxicity at 70.5 h: 1.73% for the first, -11.5% for the second.

First: CCC(CC)(CNC(=O)OC(C)(C)C)NC(=O)C1CCCO1 (stereo not drawn)
Second: COC(=O)c1cc(OCC2CCC2)cc(C(=O)N[C@@H]2CCCNC2)c1
The cytotoxicity at 70.5 h of the first is higher: -3.25% for the first, -18.2% for the second.

Compared with CC1CCN(c2nc(O)cc(C3CC(=O)N(C4CCCCC4)C3)n2)CC1 (stereo not drawn), c1cc(C2CCN(C3CCCCC3)C2)n[nH]1 (stereo not drawn) is higher in cytotoxicity at 70.5 h: -8.25% for the first, 2% for the second.

Going from Cn1cnc2c1CCN(Cc1nc(-c3ccsc3)no1)C2 to Cc1ccc(C(=O)N2Cc3c(CN4CCCCC4)nn(C)c3C2)cc1C, the cytotoxicity at 70.5 h falls from 32.4% to -16.2%.

First: O=C(NC[C@@]1(COc2cnccn2)C[C@@H](O)[C@@H](O)C1)C1CCCC1
Second: CCOCC(=O)N1C[C@@H]2CCN(c3cnccn3)C[C@@H]2C1
The cytotoxicity at 70.5 h of the first is higher: 10.3% for the first, -3.75% for the second.

Going from CCS(=O)(=O)CC(=O)NC(C)c1ccc(OCCC(C)C)cc1 (stereo not drawn) to CCC(Oc1ccc(N(C)S(C)(=O)=O)cc1)C(N)=O (stereo not drawn), the cytotoxicity at 70.5 h falls from -1.31% to -5.31%.

Compared with CCN1C(=O)CCCC12CCCN(C(=O)c1ccsc1)C2 (stereo not drawn), COCC(=O)N1CC[C@]2(O)CCN(Cc3ccsc3)C[C@@H]2C1 is lower in cytotoxicity at 70.5 h: 1.97% for the first, -7.01% for the second.

First: Cc1nn(C)cc1C(=O)NCc1csc(C2CC2)n1
Second: Cc1nn(C)cc1C(=O)N1CCC(CSc2ccccc2)C1 (stereo not drawn)
The cytotoxicity at 70.5 h of the first is higher: 18.9% for the first, -1.58% for the second.

First: CS(=O)(=O)N1CCc2ccc(=O)n(CC3CC3)c2CC1
Second: COc1ccc(S(=O)(=O)N2CCn3cnc(COCC4CC4)c3C2)cc1
The cytotoxicity at 70.5 h of the first is lower: -7.85% for the first, 10.3% for the second.

First: O=C(Nc1ccccc1)N1CCn2nnc(COc3cccnc3)c2C1
Second: CC(=O)N(C)C1CCN(c2ncc3c(n2)CCN3c2ccccc2)C1 (stereo not drawn)
The cytotoxicity at 70.5 h of the first is higher: 1.76% for the first, -3.48% for the second.

Going from O=C([C@H]1COC[C@H]2CN(C3CCOCC3)C[C@H]21)N1CCCCO1 to O=C(C1CCOCC1)N1C[C@@H]2C[C@@H](c3nc(C4CC4)cs3)O[C@@H]2C1, the cytotoxicity at 70.5 h rises from 4.24% to 8.69%.

Compared with Cc1ccn(CCC(=O)NCc2ccco2)n1, CCC(C)(C)NC(=O)c1ccc(-c2ccco2)[nH]c1=O is lower in cytotoxicity at 70.5 h: 0.885% for the first, 0.821% for the second.

Going from CN(Cc1nccn1CC(F)(F)F)C(=O)c1ccc(F)cc1F to CCOc1ncccc1C(=O)NCC(O)c1ccc(F)c(F)c1 (stereo not drawn), the cytotoxicity at 70.5 h falls from -5.49% to -6.21%.

Compared with Cc1nc(NC(=O)c2ccc(-n3ncc(C#N)c3N)cc2)sc1C, Cn1ncc(-c2cc(-c3cccc(O)c3)nc(N)c2C#N)c1C1CC1 is higher in cytotoxicity at 70.5 h: 17% for the first, 37.1% for the second.

Compared with Cc1ccc(C(C)N(C)Cc2nc3c(cnn3C)c(=O)[nH]2)cc1 (stereo not drawn), Cc1ccc(C2CSCCN2C(=O)c2cccnc2)cc1 (stereo not drawn) is higher in cytotoxicity at 70.5 h: -17.2% for the first, -9.38% for the second.

First: CN1CCOC[C@H]1c1nc(-c2cccnc2)c[nH]1
Second: Cc1nc(-c2ccc(S(=O)(=O)N3CCOCC3)cc2)co1
The cytotoxicity at 70.5 h of the first is lower: -7.84% for the first, -6.53% for the second.

First: Cn1cc(CNC(=O)c2cc3c(s2)CCCCC3)cn1
Second: COc1ccc(CNC(=O)c2nc3c(s2)CCN(C(C)=O)CC3)cc1
The cytotoxicity at 70.5 h of the first is higher: -3.43% for the first, -11.1% for the second.

Compared with Cc1nn(C)c(N(C)C)c1CNCc1cccnc1OC(C)C, Cc1ccc(CNCc2nccn2C)c(OC(C)(C)C)c1 is lower in cytotoxicity at 70.5 h: 21.9% for the first, -7.39% for the second.

First: COc1ccccc1-n1c(CC(C)C)nnc1SCC(=O)O
Second: CCOc1ncccc1CNC(=O)Nc1ccc(OC)c(OC)c1
The cytotoxicity at 70.5 h of the first is higher: -2.95% for the first, -5.39% for the second.

Going from Cc1nc2c(c(NCC(O)c3ccccc3Cl)n1)CCNCC2 (stereo not drawn) to CC1(NC(=O)Cc2csc(-c3cccc(Cl)c3)n2)CCS(=O)(=O)C1 (stereo not drawn), the cytotoxicity at 70.5 h falls from -11.8% to -63.1%.

Going from CC(C)N1Cc2cccc(NCC(=O)N(C)C3CCCCC3)c2C1 to O=C(Cn1ncc2c(c1=O)CCCCC2)Nc1cccc2[nH]ccc12, the cytotoxicity at 70.5 h rises from -0.0699% to 3.91%.

Compared with Brc1cc2c(cc1CN1CCC(N3CCCCC3)CC1)OCCO2, Fc1ccc2[nH]c3c(c2c1)CCN1C(c2ccncc2)N2CCC31CC2 (stereo not drawn) is higher in cytotoxicity at 70.5 h: -2.82% for the first, 22.4% for the second.

First: CCc1ccc(CN(C)Cc2nc(COc3ccccc3)no2)nc1
Second: CCN(CC1CN(CCc2ccccn2)CCO1)c1cccnn1 (stereo not drawn)
The cytotoxicity at 70.5 h of the first is lower: -7.21% for the first, -3.03% for the second.

First: O=C(NCc1ccccn1)Nc1cc(C(F)(F)F)c[nH]c1=O
Second: O=C1CCCc2cc(S(=O)(=O)NCc3ccccn3)ccc2N1
The cytotoxicity at 70.5 h of the first is higher: 9.08% for the first, -11% for the second.

Compared with O=C(c1ccc(S(=O)(=O)NCc2ccon2)cc1)N1CCOCC1, CSCCC(NC(=O)c1ccc2ccccc2n1)C(=O)O (stereo not drawn) is lower in cytotoxicity at 70.5 h: 19.9% for the first, 4.89% for the second.

Compared with COCCN1C[C@@H]2CN(Cc3ccoc3)CCC[C@]2(C(=O)O)C1, c1cc(COC[C@H]2CCC[C@]23CNCCO3)ccn1 is higher in cytotoxicity at 70.5 h: -1.11% for the first, 0.216% for the second.

First: NC(=O)c1cc(-n2cc(-c3cccc(C(=O)O)c3)cn2)cs1
Second: O=C1NCCCCC1SCc1coc(-c2cccc(F)c2)n1 (stereo not drawn)
The cytotoxicity at 70.5 h of the first is lower: -9.85% for the first, -5.82% for the second.

Going from CSC1=Nc2c(cnn2-c2ccc(Cl)cc2)C2=NCCCN12 to CC(C)(C)c1cn2nc(N3CCOC(Cn4cncn4)C3)sc2n1 (stereo not drawn), the cytotoxicity at 70.5 h falls from -7.03% to -15.9%.

CN(C)S(=O)(=O)N1CCCC(c2ccncn2)C1 (stereo not drawn) showed a cytotoxicity at 70.5 h of -5.39%.
